The values that follow come from patent US20260250630A1, “PROTEOMICS-BASED RECEPTOR-LIGAND MATCHING FOR OPTIMIZING STEM CELL REPROGRAMMING” (OKINAWA INSTITUTE OF SCIENCE AND TECHNOLOGY SCHOOL …, priority 2021, published 2026).

The test system of assay [1] is human ipsc-derived neurons (iN). In words: Spontaneous synaptic currents in iPSC-derived neurons (iN). It is filed as cell-based. The following applies: addition of CNQX. From the text: FIG. 14A-14E. The differentiated neurons (iN) in culture are making functional synapses. • A) DIC image of human ipsc-derived neurons (iN) in culture of DIV25.
Assay [2] deals with calyx of Held presynaptic terminals. Put plainly: EPSC recording at the calyx of Held, short-term depression and recovery. It is filed as cell-based, rat. From the text: (§1) Wistar rats (postnatal day 13-15) of either sex were killed by decapitation under isoflurane anesthesia. Transverse brainstem slices (175-200 μm in thickness) containing the medial nucleus of the trapezoid body (MNTB) were cut in ice-cold solution containing (in mM): 200 sucrose, 2.5 KCl, 26 NaHCO3, 1.25 NaH2PO4, 6 MgCl2, 10 glucose, 3 myo-inositol, 2 sodium pyruvate, and 0.5 sodium ascorbate (pH 7.4 when bubbled with 95% O2 and 5% CO2, 310-320 mOsm) by using vibroslicer (VT1200S, Leica). Before recording, slices were incubated for 1 h at 37° C. in standard aCSF solution containing (in mM): 125 NaCl, 2 KCl, 26 NaHCO3, 1.25 NaH2PO4, 2 CaCl2), 1 MgCl2, 10 glucose, 3 myo-inositol, 2 sodium pyruvate, and 0.5 sodium ascorbate (pH 7.4 when bubbled with 95% O2 and 5% CO2, 310-320 mOsm), and maintained thereafter at room temperature (24-26° C.). MNTB principal neurons and calyx of Held presynaptic terminals were visually identified using a ×40 water immersion objective attached to an upright microscope (BX51WI, Olympus).
For recording of evoked EPSCs, simultaneous pre- and postsynaptic whole-cell recordings were made from a calyceal nerve terminal and postsynaptic cell. Throughout the experiments, presynaptic recordings were made in current-clamp mode, whereas postsynaptic recordings were made in voltage-clamp mode at a holding potential of −70 mV. Pipette solution for recording of presynaptic action potentials (APs) contained (mM): 110 K-gluconate, 10 L-glutamate, 30 KCl, 10 HEPES, 0.5 EGTA, 12 Na2-phosphocreatine, 3 MgATP, 1 MgCl2, 0.3 Na2GTP (315 mOsm, pH 7.3 adjusted with KOH), and that for postsynaptic recording contained (mM): 110 CsF, 30 CsCl, 10 HEPES, 5 EGTA, 1 MgCl2, 5 QX314-CI (300 mOsm, pH 7.3 adjusted with CsOH). EPSCs were evoked by current injection (0.5-1 nA, 1 ms) into the presynaptic terminal via a recording glass electrode, in the presence of bicuculline methiodide (10 µM) and strychnine hydrochloride (0.5 μM).

Assay [3] shares this test system. Put plainly: Membrane capacitance measurement of exo-endocytosis at the calyx of Held. It is filed as cell-based, rat. The conditions noted are these: LP-935509 1 or 10 µM in presynaptic terminals.
Source text: as §1
Membrane capacitance measurement from the calyx of Held presynaptic terminals, in whole-cell configurations, were made at room temperature (RT, 26-27° C.). Data were acquired at a sampling rate of 50 KHz, using an EPC-10 patch-clamp amplifier controlled by PatchMaster software (HEKA) after on-line filtering at 5 KHz. Calyx of Held terminals were voltage-clamped at a holding potential of −80 mV and a sinusoidal voltage command with a peak-to-peak voltage of 60 mV was applied at 1 KHz. Aak1 inhibitor LP935509 (Axon MedChem) was dissolved in DMSO (0.1%), which was also included in pipette solution, and infused from whole-cell pipettes into calyceal terminals by diffusion. […]
Single-pulse step depolarization to +10 mV for 20 ms was used to induce presynaptic QCa. […] The amplitude of exocytic Cm change (ΔCm) was measured as the difference of Cm values between the baseline and those at 450-500 ms after depolarization. […] The half decay time of endocytosis was measured from the midpoint of ΔCm decay.

The test system of a further assay is calyx of Held. In words: Simultaneous pre- and postsynaptic action potential recordings, fidelity of neurotransmission. The following applies: p<0.01, n=6. It is filed as cell-based, rat.
Source text: as §1
For recording postsynaptic action potentials (APs), simultaneous pre- and postsynaptic whole-cell recordings were made from calyceal terminals and postsynaptic MNTB principal neurons, both in current-clamp mode, in the presence of bicuculline methiodide (10 µM) and strychnine hydrochloride (0.5 μM). […]

Where [4] appears, read: from cumulative histograms of EPSC amplitudes.

“Also recorded” adds a separate entry of the source.

Regarding `N#Cc1cc2[nH]c(=O)c(=O)[nH]c2cc1[N+](=O)[O-]` [CNQX], the “spontaneous synaptic currents in iN” value in assay [1] was “abolished”.

With `COc1ncccc1-c1cnn2ccc(N3CCN(C(=O)OC(C)C)CC3)nc12` [LP-935509], in assay [2] (calyx of Held), the “recovery from STD (time constants of Ca2+-dependent fast and Ca2+-independent slow components)” value is “significantly prolonged”. Besides, the “short-term depression (STD) of EPSCs” value in assay [2] (calyx of Held loaded with LP-935509, 100 Hz train, 0.3 s, compared to controls, p<0.05, n=7) was “stronger STD”. In assay [2] (setting [4]), the “pool size of readily releasable SVs” value is “reduced” and the release probability entry is reported as “without affecting”. For the same compound, in assay [3], the “exocytosis (exocytic capacitance change, ΔCm)” value was “did not indicate a significant reduction; also recorded: remained unchanged” and the “presynaptic Ca2+ current charge (QCa)” value is listed as “remained unchanged”. In assay [3] (p<0.05, n=6), the endocytic capacitance change result was “significantly prolonged”. Also, in the assay on calyx of Held (1 μM in presynaptic terminals, 100-Hz stimulation, within 40 s), the “transmission fidelity (output/input AP ratio), level declined to” value was ~ 50%. Moreover, in the assay on calyx of Held (1 μM), the “fidelity of neurotransmission (ratio of postsynaptic APs to presynaptic APs)” value is listed as “significantly impaired”.
